This is an account of results in ChEMBL document CHEMBL3808348, “Rational Design, Synthesis, and Biological Evaluation of 7-Azaindole Derivatives as Potent Focused Multi-Targeted Kinase Inhibitors” (J Med Chem, 2016).

SMILES strings stand for the structures.

In assay [1] the test system is PBMC. Nature of the assay: Hematotoxicity in human PHA/IL2-stimulated PBMC. It counts as cell-based.
Assay [2] has as its target Receptor tyrosine-protein kinase erbB-2 (Homo sapiens) (UniProt P04626). To be noted: 100 nM.
Description: Inhibition of His-tagged human recombinant ERBB2 (676 to 1225 residues) expressed in baculovirus using Fluorescein-Poly GT as substrate at 100 nM
The subject of assay [3] is Tyrosine-protein kinase ABL1 (Homo sapiens), P00519 [E255K]. In words: Inhibition of His-tagged full length human recombinant ABL E255K mutant expressed in baculovirus using Fluorescein-Poly GT as substrate at 100 nM.
For assay [4], the target named is Non-receptor tyrosine-protein kinase TYK2 (Homo sapiens) (UniProt P29597). The note with it: 100 nM.
Description: Inhibition of GST-tagged human recombinant TYK2 (832 to 1187 residues) expressed in baculovirus using Fluorescein-Poly GT as substrate at 100 nM
The nature of assay [5]: Antiproliferative activity against human Caki2 cells after 72 hrs by MTT assay. It counts as functional, cell-based. The note with it: CAKI-2, 72 h.
In assay [6] the target is Insulin-like growth factor 1 receptor (Homo sapiens) (UniProt P08069). To be noted: 100 nM.
Description: Inhibition of His-tagged human recombinant IGF1R (960 to 1397 residues) expressed in baculovirus using Fluorescein-Poly GT as substrate at 100 nM
Assay [7] concerns the target Serine/threonine-protein kinase mTOR (Homo sapiens) (UniProt P42345). The note with it: 100 nM.
Description: Inhibition of GST-tagged human recombinant mTOR (1360 to 2549 residues) expressed in baculovirus using GFP-4E -BP1 as substrate at 100 nM
Assay [8] concerns the target Glycogen synthase kinase-3 beta (Homo sapiens) (UniProt P49841). To be noted: 100 nM.
Description: Inhibition of GSK3B (unknown origin) at 100 nM
Assay [9] relates to Tyrosine-protein kinase ABL1 (Homo sapiens), P00519 [G250E]. In words: Inhibition of His-tagged full length human recombinant ABL G250E mutant expressed in baculovirus using Fluorescein-Poly GT as substrate at 100 nM.
A short description of assay [10]: Antiangiogenic activity in HRMEC after 72 hrs by MTT assay. It counts as functional, Homo sapiens.
In assay [11] the test system is Epidermal growth factor receptor (Homo sapiens), P00533 [T790M]. The note with it: 100 nM.
Chain of Epidermal growth factor receptor (Homo sapiens), P00533 [T790M] (P00533 whole entry T790M): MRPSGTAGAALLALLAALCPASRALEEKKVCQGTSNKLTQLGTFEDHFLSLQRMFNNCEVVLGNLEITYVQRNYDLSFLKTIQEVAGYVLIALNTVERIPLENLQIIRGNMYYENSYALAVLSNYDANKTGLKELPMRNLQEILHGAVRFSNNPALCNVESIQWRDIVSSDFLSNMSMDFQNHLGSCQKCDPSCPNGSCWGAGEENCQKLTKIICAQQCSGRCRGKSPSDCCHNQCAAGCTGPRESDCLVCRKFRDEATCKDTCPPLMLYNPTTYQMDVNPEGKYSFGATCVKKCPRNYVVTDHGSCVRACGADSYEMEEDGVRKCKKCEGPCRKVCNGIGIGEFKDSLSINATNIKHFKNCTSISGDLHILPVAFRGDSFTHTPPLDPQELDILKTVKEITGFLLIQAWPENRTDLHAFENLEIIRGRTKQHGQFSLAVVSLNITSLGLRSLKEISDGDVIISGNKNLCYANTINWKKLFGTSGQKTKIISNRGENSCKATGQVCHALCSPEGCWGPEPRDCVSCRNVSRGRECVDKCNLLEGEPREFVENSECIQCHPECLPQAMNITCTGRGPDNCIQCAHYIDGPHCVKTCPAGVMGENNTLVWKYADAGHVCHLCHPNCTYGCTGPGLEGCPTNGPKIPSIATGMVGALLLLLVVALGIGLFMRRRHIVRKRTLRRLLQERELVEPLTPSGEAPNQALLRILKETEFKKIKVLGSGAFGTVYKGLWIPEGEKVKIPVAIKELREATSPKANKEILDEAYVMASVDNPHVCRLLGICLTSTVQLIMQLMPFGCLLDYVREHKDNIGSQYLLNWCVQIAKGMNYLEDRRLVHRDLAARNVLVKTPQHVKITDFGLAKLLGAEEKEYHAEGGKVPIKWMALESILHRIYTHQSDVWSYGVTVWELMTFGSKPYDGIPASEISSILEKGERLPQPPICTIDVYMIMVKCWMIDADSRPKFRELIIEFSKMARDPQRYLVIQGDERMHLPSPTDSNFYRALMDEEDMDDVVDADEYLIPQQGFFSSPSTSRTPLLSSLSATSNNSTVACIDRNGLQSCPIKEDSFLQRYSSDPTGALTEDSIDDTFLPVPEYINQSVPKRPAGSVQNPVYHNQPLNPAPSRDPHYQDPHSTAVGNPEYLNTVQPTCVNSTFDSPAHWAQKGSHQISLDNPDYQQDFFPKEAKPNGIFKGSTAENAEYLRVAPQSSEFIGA
Assay [12] addresses Tyrosine-protein kinase JAK3 (Homo sapiens) (UniProt P52333). To be noted: 100 nM.
Description: Inhibition of GST-tagged human recombinant JAK3 (781 to 1124 residues) expressed in baculovirus using GFP-ST AT1 as substrate at 100 nM
Assay [13] has as its target Tyrosine-protein kinase FRK (Homo sapiens, UniProt P42685). In words: Inhibition of GST-tagged full length human recombinant FRK expressed in baculovirus using Fluorescein-Poly GT as substrate.
Assay [14] addresses Cyclin-dependent kinase 5/CDK5 activator 1 (Homo sapiens) (UniProt Q00535+Q15078). The note with it: 100 nM.
Description: Inhibition of CDK5/p25 (unknown origin) at 100 nM
In assay [15] the target is Platelet-derived growth factor receptor alpha (Homo sapiens, UniProt P16234). To be noted: 100 nM.
Description: Inhibition of GST-tagged human recombinant PDGFRalpha (550 to 1089 residues) expressed in baculovirus using Fluorescein-Poly GT as substrate at 100 nM
In assay [16] the target is Vascular endothelial growth factor receptor 3 (Homo sapiens) (UniProt P35916). To be noted: 100 nM.
Chain of Vascular endothelial growth factor receptor 3 (Homo sapiens) (P35916 whole entry): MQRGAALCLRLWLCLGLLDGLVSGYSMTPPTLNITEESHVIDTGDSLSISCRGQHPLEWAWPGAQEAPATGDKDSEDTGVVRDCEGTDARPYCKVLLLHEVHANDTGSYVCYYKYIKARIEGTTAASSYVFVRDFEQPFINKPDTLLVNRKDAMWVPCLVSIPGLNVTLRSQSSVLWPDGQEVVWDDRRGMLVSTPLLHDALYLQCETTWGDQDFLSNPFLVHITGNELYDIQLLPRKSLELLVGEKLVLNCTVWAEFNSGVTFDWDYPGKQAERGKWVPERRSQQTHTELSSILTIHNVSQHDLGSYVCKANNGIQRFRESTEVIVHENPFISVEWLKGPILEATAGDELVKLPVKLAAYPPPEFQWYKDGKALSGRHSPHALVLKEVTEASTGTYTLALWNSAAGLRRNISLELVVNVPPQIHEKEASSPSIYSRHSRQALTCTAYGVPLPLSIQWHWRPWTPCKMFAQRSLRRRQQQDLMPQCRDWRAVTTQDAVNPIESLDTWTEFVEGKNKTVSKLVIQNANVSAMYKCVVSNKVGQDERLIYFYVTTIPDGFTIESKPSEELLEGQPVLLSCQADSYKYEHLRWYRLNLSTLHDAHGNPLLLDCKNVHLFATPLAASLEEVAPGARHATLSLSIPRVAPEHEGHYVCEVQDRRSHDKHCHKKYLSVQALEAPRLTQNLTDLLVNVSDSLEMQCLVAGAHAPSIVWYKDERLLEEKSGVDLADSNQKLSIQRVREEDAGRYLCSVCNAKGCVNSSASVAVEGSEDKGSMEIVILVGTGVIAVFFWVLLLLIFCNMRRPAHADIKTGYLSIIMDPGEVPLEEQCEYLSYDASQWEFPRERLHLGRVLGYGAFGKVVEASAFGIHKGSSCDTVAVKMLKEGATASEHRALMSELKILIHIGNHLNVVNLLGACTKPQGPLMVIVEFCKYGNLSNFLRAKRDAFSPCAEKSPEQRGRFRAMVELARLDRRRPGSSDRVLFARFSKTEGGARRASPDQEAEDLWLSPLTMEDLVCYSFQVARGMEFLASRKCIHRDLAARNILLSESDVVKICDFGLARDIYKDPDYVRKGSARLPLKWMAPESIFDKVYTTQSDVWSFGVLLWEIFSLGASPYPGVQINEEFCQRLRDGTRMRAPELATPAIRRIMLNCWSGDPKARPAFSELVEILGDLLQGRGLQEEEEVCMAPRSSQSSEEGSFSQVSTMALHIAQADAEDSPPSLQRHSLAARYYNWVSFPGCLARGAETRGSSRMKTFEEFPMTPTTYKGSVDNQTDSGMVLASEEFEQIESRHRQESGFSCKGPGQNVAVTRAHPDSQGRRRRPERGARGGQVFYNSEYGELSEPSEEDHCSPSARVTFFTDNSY
Description: Inhibition of GST-tagged human recombinant VEGFR3 (800 to 1297 residues) expressed in baculovirus using Fluorescein-Poly GT as substrate at 100 nM
Assay [17] addresses Cyclin-dependent kinase 1/cyclin B1 (Homo sapiens) (UniProt P06493+P14635). The note with it: 100 nM.
Description: Inhibition of CDK1/cyclinB (unknown origin) at 100 nM
Assay [18] addresses Tyrosine-protein kinase SYK (Homo sapiens) (UniProt P43405). To be noted: 100 nM.
Description: Inhibition of GST-tagged full length human recombinant SYK expressed in baculovirus using Fluorescein-Poly GT as substrate at 100 nM

Chain of Cyclin-dependent kinase 5/CDK5 activator 1 (Homo sapiens) (Q00535 whole entry): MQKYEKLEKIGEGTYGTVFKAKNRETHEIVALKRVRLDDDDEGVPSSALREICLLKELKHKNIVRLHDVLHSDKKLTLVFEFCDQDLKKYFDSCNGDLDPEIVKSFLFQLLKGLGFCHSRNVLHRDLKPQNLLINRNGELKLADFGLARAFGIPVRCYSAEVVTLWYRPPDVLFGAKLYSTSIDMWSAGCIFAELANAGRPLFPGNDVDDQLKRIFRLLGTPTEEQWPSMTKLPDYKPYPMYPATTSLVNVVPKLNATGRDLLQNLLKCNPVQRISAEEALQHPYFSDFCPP
Chain of Cyclin-dependent kinase 5/CDK5 activator 1 (Homo sapiens) (Q15078 99-307 partner limits assumed): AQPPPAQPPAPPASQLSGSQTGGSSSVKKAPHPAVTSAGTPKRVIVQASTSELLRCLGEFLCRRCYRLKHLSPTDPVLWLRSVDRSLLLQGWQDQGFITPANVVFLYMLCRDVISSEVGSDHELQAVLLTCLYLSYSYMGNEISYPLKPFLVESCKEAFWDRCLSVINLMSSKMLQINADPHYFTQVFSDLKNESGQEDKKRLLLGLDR
Chain of Tyrosine-protein kinase FRK (P42685 whole entry): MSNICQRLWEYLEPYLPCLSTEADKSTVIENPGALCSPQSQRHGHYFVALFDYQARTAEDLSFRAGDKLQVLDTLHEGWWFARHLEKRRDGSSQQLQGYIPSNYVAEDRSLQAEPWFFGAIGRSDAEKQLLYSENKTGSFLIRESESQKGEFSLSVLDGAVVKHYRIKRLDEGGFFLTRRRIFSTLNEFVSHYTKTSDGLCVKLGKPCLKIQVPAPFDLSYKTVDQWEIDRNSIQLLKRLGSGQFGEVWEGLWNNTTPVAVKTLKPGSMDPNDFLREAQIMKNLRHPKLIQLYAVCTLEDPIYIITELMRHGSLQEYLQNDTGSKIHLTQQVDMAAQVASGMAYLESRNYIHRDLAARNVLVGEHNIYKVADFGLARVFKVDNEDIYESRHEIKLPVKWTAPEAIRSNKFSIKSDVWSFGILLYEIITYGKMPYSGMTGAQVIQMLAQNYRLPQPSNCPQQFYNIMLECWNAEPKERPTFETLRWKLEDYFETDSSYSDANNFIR
Chain of Tyrosine-protein kinase JAK3 (Homo sapiens) (P52333 whole entry): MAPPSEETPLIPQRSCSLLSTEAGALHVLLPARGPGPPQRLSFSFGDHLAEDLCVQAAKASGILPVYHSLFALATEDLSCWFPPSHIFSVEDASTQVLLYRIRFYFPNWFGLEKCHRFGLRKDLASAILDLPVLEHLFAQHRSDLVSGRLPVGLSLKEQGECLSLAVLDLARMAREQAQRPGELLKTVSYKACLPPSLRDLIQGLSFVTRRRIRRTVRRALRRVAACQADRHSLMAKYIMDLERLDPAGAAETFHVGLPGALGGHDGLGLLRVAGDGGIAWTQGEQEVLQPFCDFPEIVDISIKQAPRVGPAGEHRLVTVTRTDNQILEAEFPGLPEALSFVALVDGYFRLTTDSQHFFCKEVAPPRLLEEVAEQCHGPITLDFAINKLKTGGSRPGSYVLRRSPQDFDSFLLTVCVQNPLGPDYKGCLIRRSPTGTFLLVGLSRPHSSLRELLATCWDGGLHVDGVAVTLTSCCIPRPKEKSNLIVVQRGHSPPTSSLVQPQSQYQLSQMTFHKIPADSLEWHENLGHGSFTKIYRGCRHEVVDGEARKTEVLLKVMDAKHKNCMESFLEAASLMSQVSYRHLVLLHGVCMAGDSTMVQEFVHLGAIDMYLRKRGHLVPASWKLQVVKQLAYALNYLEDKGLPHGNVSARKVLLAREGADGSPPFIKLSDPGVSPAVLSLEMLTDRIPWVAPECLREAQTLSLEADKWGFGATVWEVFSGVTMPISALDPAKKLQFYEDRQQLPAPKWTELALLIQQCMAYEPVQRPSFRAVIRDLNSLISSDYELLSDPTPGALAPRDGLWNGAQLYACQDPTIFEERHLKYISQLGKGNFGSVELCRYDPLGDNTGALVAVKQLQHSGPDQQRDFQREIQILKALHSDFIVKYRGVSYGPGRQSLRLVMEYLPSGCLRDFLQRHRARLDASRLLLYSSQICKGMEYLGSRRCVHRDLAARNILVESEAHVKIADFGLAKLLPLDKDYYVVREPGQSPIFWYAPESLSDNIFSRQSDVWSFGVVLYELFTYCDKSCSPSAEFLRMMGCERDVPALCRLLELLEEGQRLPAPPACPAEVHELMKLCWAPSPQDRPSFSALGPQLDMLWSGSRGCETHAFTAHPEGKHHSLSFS

With `COC(=O)c1cc2cc(NCc3cc(NC(=O)c4cc(-n5cnc(C)c5)cc(C(F)(F)F)c4)ccc3C)cnc2[nH]1`, the EC50 in assay [1] was 1200 nM; in assay [5], 22 nM; in [10], 62 nM. The inhibition was less than 40% in [2]; more than 80% in assay [3]; less than 40% in assay [4]; less than 40% in [6]; less than 40% in assay [7]; less than 40% in assay [8]. The inhibition in [9] was more than 80%; in [11], less than 40%; in assay [12] it was less than 40%; in [14] it was less than 40%; in [15] it was less than 40%; in assay [16] it was less than 40%. Also, the inhibition in [17] and in assay [18] was less than 40% in each case. The IC50 in [13] is 62 nM.
